Data as given in patent US6472395B1, “Agent for use in transplantation” (Leif J. I. Lundblad, priority 1999, dated 2002).
Entries after “also recorded” stand apart in the source; their conditions may differ.

Columns and labels:
rat livers [1] = assay: TPA toxicity in rat liver perfusion, lactate and bile flow
Experimental: (§1) A series of experiments were carried out with rat livers in a heart/lung machine (FIGS. 4 and 5).
(§2) Lactate was added to a control liver perfusion and the bile flow and the lactate level were measured as a function of time. Bile flow is the clinical parameter for liver function, the higher bile flow the better liver function. The results from controls are shown in the upper diagrams of FIGS. 4 and 5. A normal liver down-regulates the lactate very rapidly to in vivo levels (3-5 mM). The normal bile flow in controls is represented by the dotted line.
In the next experiment (FIG. 5) a very toxic compound, triphorbolester (TPA) was added to the perfusion fluid. TPA is an inducer of inflammation and a very potent tumour promoter.
Then the same experiment was repeated under the same conditions except that 2 mg B220 also was added to the perfusion. From said results it can be seen that when B220 is present in the system the toxic effects of TPA were prevented and the values of lactate and bile flow were restored (and even better as compared to the controls in FIG. 5, upper diagram). […] The mode of action resides in a blocking of hyperplasia/inflammation.

[2] = Toxicity in vivo (general statement)
rat liver [3] = assay: Donor pretreatment, liver stored 2 h at +30° C. then isolated perfusion, total bile flow; type: in vivo; conditions: single dose B220 i.p. to donor 24 h prior to surgery; liver 2 h at +30° C.; FIG. 6
Experimental: In a further experiment rat liver was tested in isolated perfusion where B220 was administered to the donor. The donors were administered a single dose of B220 24 h before the livers were surgically removed and kept at +30° C. for 2 h before set into perfusion (group 3). (There was a “short” storage (2 h) of rat liver at a high temperature (+30° C.) in order to simulate transplantation). The second group was not administered B220 and the first group was controls directly set into perfusion. […] “Transport” and reperfusion gives a massive oxidative stress which leads to tissue damage.
In FIG. 6 the total bile flow was an indicator of tissue damage induced by transplantation. The controls were directly “transplanted” to the perfusion system while the second group of livers was kept for 2 h at 30° C. before “transplantation”. The third group represents the 2 h at 30° C. treatment but with addition of B220 to the donors.

rat livers [4] = assay: Ischemia/reperfusion in rat liver perfusion system, removal of lactate, comparison with known protective compounds; conditions: 5 mg added to the perfusate before ischemia; FIG. 3
Experimental: A third experiment was carried out, wherein rat livers were taken out and were subjected to perfusion in a heart/lung machine. The perfusion solution is blood with an implanted liver. When the system has reached equilibrium the perfusion flow is shut off and 10 to 20 minutes later the perfusion flow is turned on again, which is called reperfusion (ischemia). A known toxic effect of reperfusion (ischemia/infarction)(tissue damage due to oxidative stress) is the reduced capacity to remove lactate from the perfusate.

rats = assay: In vivo test of rats with 2,7-dNF, livers analysed for 8-OH-dG; set-up: species or system rat; conditions: oral in corn oil, B220 at −48 h, −24 h and +6 h relative to 2,7-dNF dose; FIG. 2
Experimental: In another experiment rats were tested in vivo and the livers analyzed for 8-OH-dG. In this experiment there were three test groups. One control group, one group to which 2,7-dinitrofluorene (2,7-dNF), which is a well-known carcinogen found in diesel exhaust and inducer of 8-OH-dG, was orally administered and one group to which both 2,7-dNF and a compound to be used as an agent according to the present invention (B220) were administered. B220 was administered at three time points in relation to the 2,7-dNF dose, viz. −48 h, −24 h and +6 h. All doses were administered orally with the substance in corn oil. Control only received carrier. Oxidation of DNA (oxidation of guanine, 8-OH-dG) was measured in the liver. 8-OH-dG is a promutagenic event correlated to several different types of diseases, for instance cancer, diabetes and infectious diseases.
The results of the experiment can be seen from the enclosed FIG. 2.

rat liver [5] = assay: Donor pretreatment, liver stored 24 h at +4° C. then isolated perfusion, bile flow and lactate; type: in vivo; conditions: pretreatment of B220 to the donor
Experimental: The same experiment was repeated but instead the temperature applied during transport of human livers(+4° C.) was used. The livers were stored for 24 h before installation in the perfusion system. This should be compared to 12 h which is the maximum for human liver transplantation. […] The experiment was identical to what is shown in FIG. 6 except for time and temperature used.

rat livers [6] = assay: Reperfusion (10 min shut-off) of rat liver in heart/lung machine, lactate and bile flow over time; conditions: 2 mg B220 in the system, FIG. 4 lower diagram
Experimental: as §1, §2
In the next experiment a heart/lung machine was shut off for 10 minutes and then it was started again to induce oxidative stress (reperfusion). The amount of lactate, which is a measurement of tissue damage, was determined as a function of time and the bile flow as a function of time was also determined as an indicator of toxic effect. The results are shown in FIG. 4, middle diagram, indicating a high level of lactate (solid curve) and a reduced bile flow (dotted curve) after reperfusion. Both these effects are markers for tissue damage.
In the next experiment the same reperfusion experiment was carried out with B220 present in the system in an amount of 2 mg.

[7] = Long time in vivo experiments on tumour promoter effect of TPA
[8] = TPA alone added to the perfusion fluid, FIG. 5 middle diagram
[9] = 2 mg B220 added together with TPA, FIG. 5 lower diagram

Experimental for liver from rat: In order to investigate the agents to be used in transplantation according to the present invention a liver from rat was tested in a perfusion solution in a heart/lung machine. In order to measure organ damage the amount of 8-OH-dG in the liver was analysed. As an inducer of 8-OH-dG dimethylsulphoxide (DMSO) was added to a perfusion solution.

**Q.** Which results are given for `CCCCCCCCCCCCCC(=O)O[C@@H]1[C@@H](C)[C@@]2(O)[C@@H](C=C(CO)C[C@]3(O)C(=O)C(C)=C[C@@H]23)[C@@H]2C(C)(C)[C@]12OC(C)=O` [TPA, triphorbolester, reference compound]?
**A.** capacity to produce bile (rat livers [1]; [8]): very restricted capacity to produce bile; capacity to reduce lactate (rat livers [1]; [8]): very limited capacity to reduce lactate

**Q.** For `Cc1cc2nc3c4ccccc4n(CCN(C)C)c3nc2cc1C` [B220], which “bile flow with TPA in perfusion” value (rat livers [1]; [9]) is on record?
**A.** restored

**Q.** And the “lactate with TPA in perfusion” value (rat livers [1]; [9])?
**A.** restored

**Q.** What about the toxicity [2] of the same compound?
**A.** practically non-toxic

**Q.** And the “total bile flow during the perfusion” value (rat liver [3])?
**A.** the toxic effects are eliminated; also recorded: completely restored the bile flow value to that of the control samples

**Q.** What about the “reduction of lactate in perfusate after ischemia (protection)” value (rat livers [4]) of the same compound?
**A.** significant reduction of lactate; also recorded: statistically significant protection

**Q.** And the “8-OH-dG in the liver (oxidation of DNA)” value (rats)?
**A.** protects against 2,7-dNF-induced formation of 8-OH-dG; also recorded: reduces 8-OH-dG to below the control values

**Q.** And the bile flow (rat liver [5]; FIG. 7)?
**A.** the bile flow was restored

**Q.** What about the lactate levels (rat liver [5]; FIG. 8) of the same compound?
**A.** same protective effect on lactate levels

**Q.** And the “bile flow as a function of time after reperfusion” value (rat livers [6])?
**A.** rapidly accommodate to normal values; also recorded: better than in the controls

**Q.** And the “lactate amount as a function of time after reperfusion” value (rat livers [6])?
**A.** rapidly accommodate to normal values; also recorded: better than in the controls

**Q.** What about the “tumour promoter effect of TPA” value [7] of the same compound?
**A.** can stop the very potent tumour promoter effect of TPA

**Q.** Which “reduction of lactate in perfusate after ischemia (protection)” value (rat livers [4]) does the source give for `CC(=O)Oc1ccccc1C(=O)O` [ASA, acetyl salicylic acid] here?
**A.** did not give any protective effects

**Q.** With `C[S+](C)[O-]` [DMSO, dimethylsulphoxide, reference compound] as the compound, how does the “8-OH-dG in the liver” value (liver from rat) read?
**A.** significant increase of 8-OH-dG
